Patent US20110091473A1, “NOVEL ANTIBODY THERAPIES” (GENMAB A/S, priority 2007, published 2011)

Key:
[1] = system: CD20 on RAJI-CD20high cells; experiment: Flow cytometry binding of FITC-conjugated B9E9 to RAJI-CD20high cells; design: species or system human; details: Berberine chloride 24 hours; Fillipin III 30 minutes
Description: To deplete cholesterol from the cell membrane, methyl-beta-cyclodextrin (MβCD, Sigma, Zwijndrecht, The Netherlands) was added in varying concentrations to Daudi cells and RAJI-CD20high cells and incubated for 30 minutes at 37° C. under gentle shaking conditions. After incubation the cells were washed twice in PBS and resuspended in test medium to a concentration of 2×10^6 viable cells/ml. MβCD-treated Daudi cells (1×10^5) were incubated with a saturating concentration of FITC-conjugated human anti-CD20 mAb 2F2 or the anti-CD20 mAb B9E9 (Beckman Coulter Inc., Fullerton, Calif.) for 30 minutes at 4° C. After washing twice with FACS buffer (PBS, 0.1% Bovine Serum Albumine, 0.02% Sodium Azide), cells were analyzed on a FACS Calibur (Becton Dickinson, Breda, The Netherlands). […] Binding is expressed as mean fluorescence intensity. […]
To determine the effect of adding cholesterol on CD20 mAb binding, all cell lines (1×10^5) were incubated with a saturating concentration of B9E9 for 30 minutes at 4° C. After washing twice with FACS buffer (PBS, 0.1% Bovine Serum Albumine, 0.02% Sodium Azide), the cells were analyzed on a FACS Calibur (Becton Dickinson, Breda, The Netherlands).
Cholesterol was depleted from the cell membrane of various B cells using varying concentrations of lovastatin (as described in Example 3) and CD20 mAb binding was determined. […]

[2] = system: RAJI-CD20high cells; experiment: Rituximab-mediated CDC of RAJI-CD20high cells, MTT assay; assay type: cell-based, human; details: for rituximab-mediated CDC after pre-incubation: Berberine chloride 24 hours or Fillipin III 30 minutes, 10 μg/ml rituximab, 10% serum
From the text: Statins are competitive inhibitors of 3-hydroxy-3-methylglutaryl-coenzyme A reductase (HMG-CoAR). HMG-CoAR is a rate-limiting enzyme of the mevalonate pathway essential for the synthesis of isoprenoid compounds including cholesterol (McTaggart S J (2006) Isoprenylated proteins. Cell Mol Life Sci 63:255-267). By inhibiting HMG-CoAR, statins can lower the cholesterol blood level and extract cholesterol from the cell membrane. To determine the effect of statin-mediated cholesterol depletion on immunotherapy RAJI-CD20high cells were cultured with a concentration range of lovastatin or diluent for 48 hours.
Cell viability was measured in a MTT assay in which 3-(4,5-dimethylthiazol-2-yl)-2,5-diphenyltetrazolium bromide (MTT) solution (5 mg/ml, Roche, Diagnostics, Almere, The Netherlands) was added to each well (flat-bottom microtiter plates; Nunc, Rochester, N.Y.). The reaction was stopped after 4 hours of incubation at 37° C. by the addition of 100 μl of 20% SDS (Roche Diagnostics, Almere, The Netherlands). After overnight incubation at 37° C. the absorbance of the samples was measured at 550-525 nm using an Elisa reader (EL808x, Biotek instruments, Highland park, Vt., USA). Cytotoxicity was expressed as a relative viability of the rituximab-mediated CDC of lovastatin-treated cells compared to cells incubated with medium only and was calculated as follows: relative viability=[(Ae−Ab)/(Ac−Ab)]*100, where Ab is the background absorbance, Ae is experimental absorbance of the lysed cells and Ac is the absorbance of untreated cells. The viability was expressed as percentage survival in comparison to non-cholesterol depleted cells (control).
RAJI-CD20high cells were incubated with diluents (control) or a concentration range of either Fillipin III for 30 minutes or Berberine chloride for 24 hours. […] The cytotoxic effects were measured in a MTT assay. […] After overnight incubation at 37° C. the absorbance of the samples was measured at 550-525 nm using an Elisa reader (EL808x, Biotek instruments, Highland park, Vt., USA). […]

[3] = system: cell surface proteins on RAJI cells; experiment: FACS binding of mAbs to cell surface proteins on RAJI cells; assay type: cell-based, human
Description: B cells (either non-treated cells, cholesterol-depleted cells via MβCD or lovastatin, or cholesterol-reconstituted cells) were characterized for quantitative surface expression of the B cell markers CD19, CD20, and CD21, the T-cell marker CD3, complement regulatory proteins CD55 and CD59, and HLA-DR and CD81 by direct immunofluorescence. […] After washing twice with FACS buffer (PBS, 0.1% Bovine Serum Albumine, 0.02% Sodium Azide), the cells were analyzed on a flow cytometer.

[4] = target: T1, human CD20 (human, UniProt P11836 1-297); experiment: flow cytometry, FITC-conjugated antibody on freshly isolated B cells of five patients after 80 mg atorvastatin
T1 sequence (looked up): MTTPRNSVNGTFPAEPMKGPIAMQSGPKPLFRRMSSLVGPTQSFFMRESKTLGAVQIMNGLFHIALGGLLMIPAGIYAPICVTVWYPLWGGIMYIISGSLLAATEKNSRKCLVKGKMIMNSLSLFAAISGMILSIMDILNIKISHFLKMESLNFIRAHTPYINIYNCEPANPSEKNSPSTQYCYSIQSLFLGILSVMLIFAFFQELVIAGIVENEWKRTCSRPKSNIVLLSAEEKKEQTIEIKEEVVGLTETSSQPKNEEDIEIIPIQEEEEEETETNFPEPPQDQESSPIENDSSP
From the text: Informed consent was provided according to the Declaration of Helsinki.

[5] = system: CD20 mRNA; experiment: CD20 mRNA level by RT-PCR in RAJI-CD20high cells; assay type: cell-based, human; details: 10 μM, time course over 48 hours
Description: To analyze whether lovastatin treatment would influence CD20 expression mRNA expression of the target was determined. RAJI-CD20high cells were incubated with either diluent (control) or 10 μM of lovastatin for different time periods (1-48 hours). Cells were washed twice with PBS, pelleted and treated with 1 ml of TRIzol Reagent (Invitrogen) to extract total RNA according to the manufacturer's protocol. RNA concentration was measured with Eppendorf Biophotometer (Eppendorf, Hamburg, Germany). The first strand cDNA synthesis containing 1 μg of total RNA was primed with oligo(dT) using Omniscript RT Kit (Qiagen, Chatsworth, Calif.). Primers used for CD20 PCR amplification were: forward-5′ […]3′ and reverse-5′ […]3′. The cycling conditions in the Mastercycler personal (Eppendorf) consisted of a first step of 94° C. denaturation for 10 minutes, followed by 35 cycles of annealing at 54° C. for 60 sec, extension at 75° C. for 90 sec, and denaturation at 94° C. for 30 sec, with a final elongation step at 75° C. for 10 minutes using HotStart Taq DNA Polymerase (Qiagen). Amplification products were analyzed by 1.5% agarose gel electrophoresis.

[6] = system: CD20 protein; experiment: Total cellular CD20 protein level by Western blotting in RAJI-CD20high cells; assay type: cell-based, human; details: 5-30 μM, 48 hours
Description: Control cells or cells incubated with 10 μM lovastatin for 48 hours, washed twice with PBS, were pelleted and lysed with radioimmunoprecipitation assay (RIPA) buffer containing Tris base 50 mM, NaCl 150 mM, NP-40 1%, sodium deoxycholate 0.25% and EDTA 1 mM supplemented with Complete® protease inhibitor cocktail tablets (Roche Diagnostics, Mannheim, Germany). Protein concentration was measured using Bio-Rad Protein Assay (BioRad, Hercules, Calif., USA). Equal amounts of whole cell proteins were separated on 12.5% SDS-polyacrylamide gel, transferred onto Protran® nitrocellulose membranes (Schleicher and Schuell BioScience Inc., Keene, N.H.), blocked with TBST (Tris buffered saline (pH 7.4) and 0.05% Tween 20) supplemented with 5% nonfat milk and 5% FBS. The following mAb (at 1:1000 dilution) were used for the overnight incubation: anti-CD20 (NCL-CD20-L26, Novocastra Laboratories Ltd, UK), anti-ICAM-1 (Santa Cruz, Santa Cruz, Calif.). After extensive washing with TBST, the membranes were incubated for 45 minutes with peroxidase conjugated ImmunoPure Goat Anti-Mouse IgG [F(ab′)2] (Jackson ImmunoResearch Laboratories Inc, Pa.). The chemiluminescence reaction for horseradish peroxidase was developed using SuperSignal WestPico Trail Kit® (Pierce, Rockford, Ill.) on a standard x-ray film. […]

[7] = system: CD20 in the plasma membrane; experiment: CD20 localization in RAJI-CD20high cells (immunofluorescence, surface biotinylation); assay type: cell-based, human
Description: To examine localization of CD20 in RAJI-CD20high cells a double immunofluorescence staining with anti-CD20 mAb directed against an extracellular conformational epitope of CD20, and, after cell permeabilization, with a mAb against a linear epitope in the cytosolic tail of this molecule was performed. Control and lovastatin-pretreated RAJI-CD20high cells were stained in suspension at a density of 5×10^5/ml with FITC-conjugated B9E9 (1:10 in PBS, Immunotech Coulter Company, France) for 30 minutes at room temperature. After washing in PBS (three times), 200 μl of the cell suspension was spun onto a Cytospin slide. The slides were air-dried, acetone-fixed for 15 minutes at room temperature, washed three times with PBS, incubated with anti-CD20 mAb (Novocastra) (1:100 in PBS with 5% normal donkey serum (Jackson)) for 60 minutes at room temperature. The slides were washed three times in PBS and incubated with donkey anti-mouse Alexa555 conjugated antibody (Molecular Probes, CA) (1:200 for 30 minutes at room temperature). The slides were washed, mounted in Vectashield (Vector Laboratories, CA.) and examined by fluorescence microscopy (Leica TCS SP2). […] After five washes, gel-bound complexes were boiled in 2× Laemmli sample buffer and analyzed for CD20 by Western blotting using anti-CD20 mAb (NCL-CD20-L26, Novocastra) as described in Example 8.

[8] = target: T1, human CD20; experiment: cell-based or functional assay
[9] = increasing concentrations of MβCD

In the case of Fillipin III, the “binding of B9E9 to cells treated with cholesterol-modulating drug” value [1] is reported as “not observed” and the “rituximab-mediated CDC after pre-incubation” value [2] is reported as “remained sensitive”.

For COc1ccc2cc3[n+](cc2c1OC)CCc1cc2c(cc1-3)OCO2 [Berberine chloride], the “binding of B9E9 to cells treated with cholesterol-modulating drug” value [1] was “impaired binding” and the “rituximab-mediated CDC after pre-incubation” value [2] was “significantly abrogated”.

In the case of methyl-beta-cyclodextrin [MβCD], the “binding of mAbs against CD19, CD20, CD55, CD59, HLA-DR and CD81” value [3, 9] is reported as “negatively correlated” and the “mAb binding to CD21” value [3, 9] is reported as “not affected”.

“CD20 mAb B1 (GlaxoSmithKline) (antibody)” showed an average decrease of the CD20/CD21 MFI ratio, day 3 against day 0 (so in the source) [4] of 96%.

With CC[C@H](C)C(=O)O[C@H]1C[C@@H](C)C=C2C=C[C@H](C)[C@H](CC[C@@H]3C[C@@H](O)CC(=O)O3)[C@H]21 [lovastatin] the “protection from rituximab-induced CDC (cell viability)” value ([2]; lovastatin concentration range 48 hours, 10% complement active serum) was “concentration-dependent protection”, the “mRNA level for CD20” value [5] was “remained constant” and the “total cellular CD20 protein level” value [6] was “did not influence”. The “binding of mAb directed to the extracellular epitope of CD20” value ([7]; 48-hour pre-treatment, confocal immunofluorescence) was “nearly completely abrogated binding”, the “CD20 detectable among biotinylated surface proteins” value ([7]; treated cells compared with controls) was “comparable amounts” and the “decrease of mAb binding of CD21” value ([3]; 10 μM lovastatin) was “not”. The “mAb binding of CD19 and CD20” value ([3]; 10 μM lovastatin) was “clearly decreased”.

B1: rituximab (antibody, V domains shown)
VH: QVQLQQPGAELVKPGASVKMSCKASGYTFTSYNMHWVKQTPGRGLEWIGAIYPGNGDTSYNQKFKGKATLTADKSSSTAYMQLSSLTSEDSAVYYCARSTYYGGDWYFNVWGAGTTVTVSA
VL: QIVLSQSPAILSASPGEKVTMTCRASSSVSYIHWFQQKPGSSPKPWIYATSNLASGVPVRFSGSGSGTSYSLTISRVEAEDAATYYCQQWTSNPPTFGGGTKLEIK
For B1, the “EC50 of rituximab-mediated ADCC, 51Cr release, lovastatin-treated RAJI cells, PBMC effector cells” value [8] was 0.082 µg/mL and the “EC50 of rituximab-mediated ADCC, 51Cr release, non-treated RAJI cells, PBMC effector cells” value [8] was 0.024 µg/mL.

B2: CD20 mAb 11B8 (antibody, V domains shown)
VH: EVQLVQSGGGLVHPGGSLRLSCTGSGFTFSYHAMHWVRQAPGKGLEWVSIIGTGGVTYYADSVKGRFTISRDNVKNSLYLQMNSLRAEDMAVYYCARDYYGAGSFYDGLYGMDVWGQGTTVTVSS
VL: EIVLTQSPATLSLSPGERATLSCRASQSVSSYLAWYQQKPGQAPRLLIYDASNRATGIPARFSGSGSGTDFTLTISSLEPEDFAVYYCQQRSDWPLTFGGGTKVEIK
With B2 the “average decrease of the CD20/CD21 MFI ratio, day 3 against day 0 (so in the source)” value [4] was 84%.
